Measurements as given in patent US11291719B2, “Methods and compositions for modulating Akt3” (Augusta University Research Institute, Inc., priority 2016, dated 2022).

Tests used:
TC-1 tumor = TC-1 tumor growth under mJJ64A; type: in vivo, mouse; settings: compared to untreated controls
Description: FIG. 18A is an illustration showing the experimental method and treatment schematic for TC-1 tumor experiments. FIG. 18B is a line graph showing tumor volume (cm^3) over time (days) for untreated (▴) and mJJ64A treated (♦) TC1 tumor bearing mice.

Akt1 pS473 = molecular target: T1, Akt1 pS473 (Homo sapiens, UniProt P31749); assay: Akt1 phosphorylation in A2780 cells; type: cell-based; settings: human ovarian carcinoma cells (A2780)
T1 construct: expression of Akt1 pS473, Akt2 pS474, Akt3 pS472, and Akt pan 5473,474,472 in A2780 cells; endogenous in cells; host or cells: A2780 human ovarian carcinoma cells
T1 sequence (P31749 whole entry): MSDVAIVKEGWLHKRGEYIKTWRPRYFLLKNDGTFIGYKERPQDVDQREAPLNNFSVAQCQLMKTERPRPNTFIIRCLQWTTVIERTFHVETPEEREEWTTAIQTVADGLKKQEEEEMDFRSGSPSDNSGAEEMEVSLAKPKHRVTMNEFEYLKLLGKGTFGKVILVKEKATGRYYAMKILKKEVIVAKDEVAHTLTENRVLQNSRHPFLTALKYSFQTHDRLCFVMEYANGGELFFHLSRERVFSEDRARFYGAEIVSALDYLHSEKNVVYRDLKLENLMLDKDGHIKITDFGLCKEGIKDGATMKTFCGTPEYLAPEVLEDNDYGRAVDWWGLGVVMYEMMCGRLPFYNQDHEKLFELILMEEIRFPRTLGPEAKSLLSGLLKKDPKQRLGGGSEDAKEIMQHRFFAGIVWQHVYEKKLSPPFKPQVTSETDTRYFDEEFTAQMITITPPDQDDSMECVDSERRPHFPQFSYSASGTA
Description: (§1) FIG. 10 is a bar graph showing the effect of mJJ64A on the expression of Akt1 pS473, Akt2 pS474, Akt3 pS472, and Akt pan 5473,474,472 in A2780 cells compared to control. The Y axis represents integrated density value.

Akt3 pS472 = molecular target: T2, Akt3 pS472 (Homo sapiens, UniProt Q9Y243); assay: Akt3 phosphorylation in A2780 cells; type: cell-based; settings: human ovarian carcinoma cells (A2780)
T2 construct: expression of Akt1 pS473, Akt2 pS474, Akt3 pS472, and Akt pan 5473,474,472 in A2780 cells; endogenous in cells; host or cells: A2780 human ovarian carcinoma cells
T2 sequence (Q9Y243 whole entry): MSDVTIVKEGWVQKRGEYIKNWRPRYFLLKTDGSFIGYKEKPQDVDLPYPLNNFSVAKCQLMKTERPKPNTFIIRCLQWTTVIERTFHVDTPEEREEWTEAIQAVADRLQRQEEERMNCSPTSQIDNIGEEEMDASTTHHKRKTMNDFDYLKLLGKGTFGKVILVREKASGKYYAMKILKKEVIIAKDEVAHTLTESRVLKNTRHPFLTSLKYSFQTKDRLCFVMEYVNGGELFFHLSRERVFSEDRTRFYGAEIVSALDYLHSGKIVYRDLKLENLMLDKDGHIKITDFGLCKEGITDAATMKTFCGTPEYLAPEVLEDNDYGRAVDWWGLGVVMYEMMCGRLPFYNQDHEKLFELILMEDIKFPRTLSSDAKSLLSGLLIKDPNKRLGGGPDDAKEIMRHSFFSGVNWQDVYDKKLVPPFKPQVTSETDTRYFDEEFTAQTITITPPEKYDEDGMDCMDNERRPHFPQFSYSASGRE
Description: as §1

nTregs = assay: Proliferation and viability of activated nTregs; type: cell-based
Description: FIGS. 14A-14H is a set of histograms showing proliferation of activated nTregs treated with various concentrations of mJJ64A. FIG. […] is a bar graph showing percent proliferation of nTregs treated with various concentrations of mJJ64A. The X-axis represents treatment and the Y-axis represents percent proliferation. FIG. 13J is a bar graph showing the percent of live cells in nTregs treated with various concentrations of mJJ64A. The X-axis represents treatment and the Y-axis represents percentage of live cells.
FIGS. 16A-16L is a set of histograms showing the suppressive function of untreated and mJJ64A treated nTregs. The ratio of nTreg to Tconv cells is 0:1, 0.5:1, 1:1, 2:1, and 3:1.

mouse iTreg cells = assay: Suppressive function of mouse iTregs in vitro; type: cell-based; settings: iTreg to Tconv ratios 0:1 to 2:1
Description: FIGS. 15A-15J is a set of histograms showing the suppressive function of mouse iTregs in untreated and mJJ64A treated iTregs. The ratio of iTreg to Tconv cells was 0:1, 0.5:1, 1:1, and 2:1.

[1] = system: experimental autoimmune encephalomyelitis (EAE); assay: Experimental autoimmune encephalomyelitis (EAE) model; type: in vivo, mouse
Description: FIG. 24A is a schematic illustration of induction of experimental autoimmune encephalomyelitis (EAE) model. FIG. 24B is a chart showing the grading criterion for scoring severity of EAE. FIG. 24C is a line graph showing EAE score over time (days post EAE induction) for control (●), iTreg (blue circle), and mJJ64A-10 (▾) treated mice. The X-axis represents time (days) and the Y-axis represents EAE score. FIG. 24D is a line graph showing percent survival over time (days) for untreated (•), iTreg treated (●), and mJJ64A-10 treated (▾) mice. The X-axis represents time (days) and the Y-axis represents percent survival. FIG. 24E is a line graph representing EAE score over time (days post EAE induction) for control (●), iTreg (♦), mJJ64A-3 (blue circle), mJJ64A-6 (▾), and mJJ64A-10 (▴) treated EAE mice. The X-axis represents time (days post EAE induction) and the Y-axis represents EAE score. FIG. 24F is a line graph representing percent survival over time (days) for untreated (•), iTreg (blue circle), mJJ64A-3 (▾), mJJ64A-6 (▴), and mJJ64A-10 (♦) treated EAE mice. The X-axis represents time (days) and the Y-axis represents percent survival.

Tregs = assay: Percent of Tregs in Rag-/- mice; type: in vivo, mouse; settings: compared to untreated
Description: FIG. 22A is a bar graph showing the number of CD4^+ T cells per 10^6 live cells in the spleen of WT, UT, iTreg, mJJ64A, and mJJ64A treated iTreg treated Rag^−/− mice. The X-axis represents treatment group and the Y-axis represents number of CD4^+ cells per 10^6 live cells. FIG. 22B is a bar graph showing the percent of FoxP3^+ cells per CD4^+ T cells in the spleen of WT, UT, iTreg, mJJ64A, and mJJ64A treated iTreg treated Rag^−/− mice. The X-axis represents treatment group and the Y-axis represents number of FoxP3^+ cells per CD4^+ cells. FIG. 22C is a bar graph showing the percent of FoxP3^− cells per CD4^+ T cells in the spleen of WT, UT, iTreg, mJJ64A, and mJJ64A treated iTreg treated Rag^−/− mice. The X-axis represents treatment group and the Y-axis represents number of FoxP3^− cells per CD4^+ cells. FIG. 22D is a bar graph showing the number of CD4^+ T cells per 10^6 live cells in the lymph node of WT, UT, iTreg, mJJ64A, and mJJ64A treated iTreg treated Rag^−/− mice. The X-axis represents treatment group and the Y-axis represents number of CD4^+ cells per 10^6 live cells. FIG. 22E is a bar graph showing the percent of FoxP3^+ cells per CD4^+ T cells in the lymph node of WT, UT, iTreg, mJJ64A, and mJJ64A treated iTreg treated Rag^−/− mice. The X-axis represents treatment group and the Y-axis represents number of FoxP3^+ cells per CD4^+ cells. […]

FoxP3 = assay: Western blot of FoxP3 in Tconv cells during iTreg induction; type: cell-based; settings: TGF-β induced
Description: FIG. 12 is a western blot showing the expression of FoxP3, pAkt3, Akt3, pAkt1, and Akt1 in activated Tconv cells induced with TGF-β and treated with various concentrations of mJJ64A.

N#Cc1ccc2nccc(Nc3ccc(C(=O)Nc4ccc(Nc5ccncc5)cc4)cc3)c2c1 [Compound 2]
TC-1 tumor growth (TC-1 tumor): significantly increased
phosphorylation of Akt1 (Akt1 pS473): not
phosphorylation of Akt3 (Akt3 pS472): significantly increases
viability of nTregs (nTregs): without affecting
proliferation of nTregs (nTregs; activated nTregs): increased
suppressive function of mouse iTreg cells in vitro (mouse iTreg cells): increased
disease progression in EAE model ([1]; EAE score): reduced
survival rate in EAE model ([1]; mouse, in vivo): increased
percent of Tregs in the spleen and mesenteric lymph nodes (Tregs): increased
expression of FoxP3 in Tconv cells during iTreg induction (FoxP3): increased
